The values that follow come from US8802702B2, “Compounds for reducing drug resistance and uses thereof” (The General Hospital Corporation, priority 2009, dated 2014).

SMILES strings stand for the structures. Like-named read-outs stand apart in the source and are kept apart here.

One data set deals with OVCAR8TR cells. Nature of the data set: Reversal of drug resistance, cytotoxicity (MTT) assay in OVCAR8TR. It is filed as cell-based, human. The following applies: anti-cancer drug alone, no NSC23925, read-out: OVCAR8TR IC50. As for the experimental part:
FIGS. 1 (a-b) are graphs that depict the effects of NSC23925 on drug sensitivity in ovarian cancer cells; 1(a) depicts the effects of NSC23925 on sensitive (SKOV-3) and resistant (SKOV-3TR) cells; 1(b) depicts the effects of NSC23925 on sensitive (OVCAR8) and resistant (OVCAR8TR) cells. Cells were treated with the paclitaxel and NSC23925 in RPMI1640 complete media at the indicated concentrations. The relative sensitivity of each line to paclitaxel was determined by MTT assay, as described below in the Examples section, 6 days post treatment. A: Reversal of paclitaxel resistance by NSC23925 in SKOV-3TR cells. B: Reversal of paclitaxel resistance by NSC23925 in OVCAR8TR cells.
(§1) Drug cytotoxicity was assessed in vitro using the MTT assay. SKOV-3 and SKOV-3TR cells were used herein. Briefly, 2×10^3 cells per well were plated in 96-well plates in culture medium (RPMI 1640 supplemented with 10% fetal bovine serum and penicillin/streptomycin) containing increasing concentrations of drug. After 7 days of culture, 10 μl MTT (5 mg/ml in PBS, obtained from Sigma) were added to each well and the plates were incubated for 4 h. The resulting formazan product was dissolved with acid-isopropanol and the absorbance at a wavelength of 490 nm (A490) was read on a SPECTRAmax® Microplate Spectrophotometer (Molecular Devices, Sunnyvale, Calif.). The absorbance values were normalized by assigning the value of the control line in the medium without drug to 1.0 and the value of the no cell control to 0. Experiments were performed in triplicate.

In another data set the test system is SKOV-3TR cells. Nature of the data set: Reversal of drug resistance, cytotoxicity (MTT) assay in SKOV-3TR. It is filed as cell-based. The following applies: anti-cancer drug alone, no NSC23925, read-out: SKOV-3TR IC50. As for the experimental part: FIGS. 1 (a-b) are graphs that depict the effects of NSC23925 on drug sensitivity in ovarian cancer cells; 1(a) depicts the effects of NSC23925 on sensitive (SKOV-3) and resistant (SKOV-3TR) cells; 1(b) depicts the effects of NSC23925 on sensitive (OVCAR8) and resistant (OVCAR8TR) cells. […] The relative sensitivity of each line to paclitaxel was determined by MTT assay, as described below in the Examples section, 6 days post treatment. […]
as §1, with “After 7 days of culture, 10 μl MTT (5 mg/ml in PBS, obtained from Sigma) were added to each well and the plates were incubated for 4 h.” left out

The subject of the next data set is KHOSR2 cells. In words: Reversal of drug resistance, cytotoxicity assay in KHOSR2. The following applies: anti-cancer drug alone, no NSC23925, read-out: KHOSR2 IC50. It counts as cell-based, human.
The conditions of data set [1]: background statement; cited from earlier work.

On to `COc1cccc2c1C(=O)c1c(O)c3c(c(O)c1C2=O)C[C@@](O)(C(=O)CO)C[C@@H]3O[C@H]1C[C@H](N)[C@H](O)[C@H](C)O1` [Doxorubicin, reference compound], for which the IC50 in the data set on OVCAR8TR cells (Homo sapiens, 144 h) came out at 27620 ± 256 nM; in the data set with SKOV-3TR cells (Homo sapiens, SKOV3TR, 144 h), 22340 ± 200 nM; with KHOSR2 cells (Homo sapiens), 10300 ± 566 nM.
In the case of `COc1cc2c(cc1O)CCN[C@]21CS[C@@H]2c3c(OC(C)=O)c(C)c4c(c3[C@H](COC1=O)N1[C@@H]2[C@H]2c3c(cc(C)c(OC)c3O)C[C@@H]([C@@H]1O)N2C)OCO4` [ET-743, reference compound], the IC50 with OVCAR8TR cells (Homo sapiens, 144 h) worked out at 6 ± 2 nM; with SKOV-3TR cells (Homo sapiens, SKOV3TR, 144 h) it was 4 ± 2 nM; with KHOSR2 cells (Homo sapiens), 175 ± 25 nM.
Regarding `COc1c(C)cc2c(c1O)[C@@H]1[C@@H]3Cc4c(OC(C)=O)c(C)c5c(c4[C@H](CNC(=O)/C=C/c4cccc(C(F)(F)F)c4)N3[C@@H](O)[C@H](C2)N1C)OCO5` [PM00104, reference compound], the IC50 turned out to be 8 ± 2 nM in the data set with OVCAR8TR cells, 6 ± 1 nM in the data set on SKOV-3TR cells and 143 ± 45 nM in the data set on KHOSR2 cells.
As to `C/C=C/C[C@@H](C)C(=O)[C@H]1C(=O)N[C@@H](C(C)C)C(=O)N(C)CC(=O)N(C)[C@@H](CC(C)C)C(=O)N[C@@H](C(C)C)C(=O)N(C)[C@@H](CC(C)C)C(=O)N[C@@H](C)C(=O)N[C@H](C)C(=O)N(C)[C@@H](CC(C)C)C(=O)N(C)[C@@H](CC(C)C)C(=O)N(C)[C@@H](C(C)C)C(=O)N1C` [PSC 833], the “Reported toxicity / side effects at doses used to modify drug resistance” value in data set [1] is “cerebellar ataxia and hyperbilirubinemia toxicities”.
As for `CC(=O)O[C@H]1C(=O)[C@@]2(C)[C@H]([C@H](OC(=O)c3ccccc3)[C@]3(O)C[C@H](OC(=O)[C@H](O)[C@@H](NC(=O)c4ccccc4)c4ccccc4)C(C)=C1C3(C)C)[C@]1(OC(C)=O)CO[C@@H]1C[C@@H]2O` [Paclitaxel, reference compound], the concentration for half-maximal inhibition (IC50) in the data set with OVCAR8TR cells (Homo sapiens, 144 h) is 340 ± 32 nM; with SKOV-3TR cells (Homo sapiens, SKOV3TR, 144 h) it was 310 ± 21 nM; in the data set on KHOSR2 cells (Homo sapiens) it was 210 ± 23 nM.
